This test has as its target T1, GHS-R (Homo sapiens, UniProt Q92847).
T1 construct: expressed in transfected cells; host or cells: COS-7 cells
Nature of the test: GHS-R competition binding assay (Ki of GHS-R antagonizing compounds). As for the experimental part:
One exemplary binding assay is as follows: GHS-R expressing COS-7 cells cultured at a density of 1×10^5 cells per well so that binding is assayed in the range of about 5-8 % binding of the radioactive ligand. For example, the cells can express an endogenous nucleic acid encoding GHS-R or an exogenous nucleic acid encoding GHS-R. Cells transfected with an exogenous nucleic acid encoding GHS-R can be used, e.g., two days, after transfection. Competition binding experiments are performed for 3 hours at 4° C. using 25 pM of ^125I-ghrelin in 0.5 ml of 50 mM HEPES buffer, pH 7.4, supplemented with 1 mM CaCl2, 5 mM MgCl2, and 0.1% (w/v) bovine serum albumin, 40 mg/ml bacitracin. Non-specific binding can be determined as the binding in the presence of […] of unlabeled ghrelin. Cells are washed twice in 0.5 ml of ice-cold buffer and then lysed with 0.5-1 ml of lysis buffer (8 M Urea, 2% NP40 in 3 M acetic acid). After washing and lysis, the bound radioactivity is counted. Assays can be run in duplicate or triplicate, e.g., to provide statistical power.
Values of the dissociation and inhibition constants (Kd and Ki) can be estimated from competition binding experiments using the equation: Kd=IC50-L and Ki=IC50/(1+L/Kd), where L is the concentration of radioactive ligand. Bmax values can be estimated from competition binding experiments using the equation Bmax=B0 IC50/[ligand], where B0 is the specifically bound radioligand.
T1 sequence (Q92847 whole entry, species assumed): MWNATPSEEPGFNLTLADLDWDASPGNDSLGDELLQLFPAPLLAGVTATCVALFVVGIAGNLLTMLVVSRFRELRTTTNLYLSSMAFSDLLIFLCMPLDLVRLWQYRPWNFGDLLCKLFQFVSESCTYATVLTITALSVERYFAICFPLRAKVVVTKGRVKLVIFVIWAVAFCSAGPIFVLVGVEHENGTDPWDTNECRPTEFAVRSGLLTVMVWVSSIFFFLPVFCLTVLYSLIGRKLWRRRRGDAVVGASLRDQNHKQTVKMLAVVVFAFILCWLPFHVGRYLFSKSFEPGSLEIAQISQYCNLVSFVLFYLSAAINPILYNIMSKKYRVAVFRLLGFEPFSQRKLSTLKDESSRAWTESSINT
One may read the Ki as a dissociation constant, usually derived from enzyme kinetics or from competition with a known ligand. A low value points to higher affinity. `CN(C)CCS(=O)(=O)N[C@H](COCc1ccccc1)C(=O)N1CCC2(CC1)CN(S(C)(=O)=O)c1ccccc12` [Compound 128, (R)-N-(3-(benzyloxy)-1-(1-(methylsulfonyl)spiro[indoline-3,4′-piperidine]-1′-yl)-1-oxopropan-2-yl)-2-(dimethylamino)ethanesulfonamide] gave a Ki of 0.1 to 1 µM.

In the case of `CN1CCN(CCS(=O)(=O)N[C@H](COCc2ccccc2)C(=O)N2CCC3(CC2)CN(S(C)(=O)=O)c2ccccc23)CC1` [Compound 129, (R)-N-(3-(benzyloxy)-1-(1-(methylsulfonyl)spiro[indoline-3,4′-piperidine]-1′-yl)-1-oxopropan-2-yl)-2-(4-methylpiperazin-1-yl)ethanesulfonamide], the Ki was above 1 µM.

`CCN(C)CCS(=O)(=O)N[C@H](COCc1ccccc1)C(=O)N1CCC2(CC1)CN(S(C)(=O)=O)c1ccccc12` [Compound 130, (R)-N-(3-(benzyloxy)-1-(1-(methylsulfonyl)spiro[indoline-3,4′-piperidine]-1′-yl)-1-oxopropan-2-yl)-2-(ethyl(methyl)amino)ethanesulfonamide] returned a Ki of 0.1 to 1 µM.

The compound `CC(C)N(C)CCS(=O)(=O)N[C@H](COCc1ccccc1)C(=O)N1CCC2(CC1)CN(S(C)(=O)=O)c1ccccc12` [Compound 131, (R)-N-(3-(benzyloxy)-1-(1-(methylsulfonyl)spiro[indoline-3,4′-piperidine]-1′-yl)-1-oxopropan-2-yl)-2-(isopropyl(methyl)amino)ethanesulfonamide] had an inhibition constant (Ki) of 0.1 to 1 µM.

For the compound `CCN(CC)CCS(=O)(=O)N[C@H](COCc1ccccc1)C(=O)N1CCC2(CC1)CN(S(C)(=O)=O)c1ccccc12` [Compound 132, (R)-N-(3-(benzyloxy)-1-(1-(methylsulfonyl)spiro[indoline-3,4′-piperidine]-1′-yl)-1-oxopropan-2-yl)-2-(diethylamino)ethanesulfonamide], the Ki was below 0.1 µM.

Compound `CCN(CCS(=O)(=O)N[C@H](COCc1ccccc1)C(=O)N1CCC2(CC1)CN(S(C)(=O)=O)c1ccccc12)C(C)C` [Compound 133, (R)-N-(3-(benzyloxy)-1-(1-(methylsulfonyl)spiro[indoline-3,4′-piperidine]-1′-yl)-1-oxopropan-2-yl)-2-(ethyl(isopropyl)amino)ethanesulfonamide] displayed a Ki above 1 µM.

The compound `CS(=O)(=O)N1CC2(CCN(C(=O)[C@@H](COCc3ccccc3)NS(=O)(=O)CCN3CCC3)CC2)c2ccccc21` [Compound 134, (R)-2-(azetidin-1-yl)-N-(3-(benzyloxy)-1-(1-(methylsulfonyl)spiro[indoline-3,4′-piperidine]-1′-yl)-1-oxopropan-2-yl)ethanesulfonamide] displayed an inhibition constant Ki above 1 µM.

On to `CS(=O)(=O)N1CC2(CCN(C(=O)[C@@H](COCc3ccccc3)NS(=O)(=O)CCN3CCCCC3)CC2)c2ccccc21` [Compound 135, (R)-N-(3-(benzyloxy)-1-(1-(methylsulfonyl)spiro[indoline-3,4′-piperidine]-1′-yl)-1-oxopropan-2-yl)-2-(piperidin-1-yl)ethanesulfonamide], for which the Ki was 0.1 to 1 µM.

Compound `CS(=O)(=O)N1CC2(CCN(C(=O)[C@@H](COCc3ccccc3)NS(=O)(=O)CCN3CCCC3)CC2)c2ccccc21` [Compound 136, (R)-N-(3-(benzyloxy)-1-(1-(methylsulfonyl)spiro[indoline-3,4′-piperidine]-1′-yl)-1-oxopropan-2-yl)-2-(pyrrolidin-1-yl)ethanesulfonamide] came in with a Ki of 0.1 to 1 µM.

In turn, `CN1CCC(S(=O)(=O)N[C@H](COCc2ccccc2)C(=O)N2CCC3(CC2)CN(S(C)(=O)=O)c2ccccc23)CC1` [Compound 137, (R)-N-(3-(benzyloxy)-1-(1-(methylsulfonyl)spiro[indoline-3,4′-piperidine]-1′-yl)-1-oxopropan-2-yl)-1-methylpiperidine-4-sulfonamide] returned a Ki below 0.1 µM.

As to `CS(=O)(=O)N1CC2(CCN(C(=O)[C@@H](COCc3ccccc3)NS(=O)(=O)CCN3CCOCC3)CC2)c2ccccc21` [Compound 138, (R)-N-(3-(benzyloxy)-1-(1-(methylsulfonyl)spiro[indoline-3,4′-piperidine]-1′-yl)-1-oxopropan-2-yl)-2-morpholinoethanesulfonamide], the Ki is above 1 µM.

The compound `CC(C)(C)NCCS(=O)(=O)N[C@H](COCc1ccccc1)C(=O)N1CCC2(CC1)CN(S(C)(=O)=O)c1ccccc12` [Compound 139, (R)-N-(3-(benzyloxy)-1-(1-(methylsulfonyl)spiro[indoline-3,4′-piperidine]-1′-yl)-1-oxopropan-2-yl)-2-(tert-butylamino)ethanesulfonamide] had a Ki of 0.1 to 1 µM.

In turn, `CC(C)NCCS(=O)(=O)N[C@H](COCc1ccccc1)C(=O)N1CCC2(CC1)CN(S(C)(=O)=O)c1ccccc12` [Compound 140, (R)-N-(3-(benzyloxy)-1-(1-(methylsulfonyl)spiro[indoline-3,4′-piperidine]-1′-yl)-1-oxopropan-2-yl)-2-(isopropylamino)ethanesulfonamide] had a Ki above 1 µM.

`CC(C)NCCCS(=O)(=O)N[C@H](COCc1ccccc1)C(=O)N1CCC2(CC1)CN(S(C)(=O)=O)c1ccccc12` [Compound 141, (R)-N-(3-(benzyloxy)-1-(1-(methylsulfonyl)spiro[indoline-3,4′-piperidine]-1′-yl)-1-oxopropan-2-yl)-3-(isopropylamino)propane-1-sulfonamide] displayed a Ki below 0.1 µM.

In turn, `CS(=O)(=O)N1CC2(CCN(C(=O)[C@@H](COCc3ccccc3)NS(=O)(=O)CCCN3CCOCC3)CC2)c2ccccc21` [Compound 142, (R)-N-(3-(benzyloxy)-1-(1-(methylsulfonyl)spiro[indoline-3,4′-piperidine]-1′-yl)-1-oxopropan-2-yl)-3-morpholinopropane-1-sulfonamide] came in with a Ki above 1 µM.

With `CC(C)(C)NCCCS(=O)(=O)N[C@H](COCc1ccccc1)C(=O)N1CCC2(CC1)CN(S(C)(=O)=O)c1ccccc12` [Compound 143, (R)-N-(3-(benzyloxy)-1-(1-(methylsulfonyl)spiro[indoline-3,4′-piperidine]-1′-yl)-1-oxopropan-2-yl)-3-(tert-butylamino)propane-1-sulfonamide], the Ki was 0.1 to 1 µM.

As for `CS(=O)(=O)N1CC2(CCN(C(=O)[C@@H](COCc3ccccc3)NS(=O)(=O)CCN3C4CCCC3CC4)CC2)c2ccccc21` [Compound 144, N-((R)-3-(benzyloxy)-1-(1-(methylsulfonyl)spiro[indoline-3,4′-piperidine]-1′-yl)-1-oxopropan-2-yl)-2-(8-azabicyclo[3.2.1]octan-8-yl)ethanesulfonamide], the Ki fell in the range of 0.1 to 1 µM.

Turning to `CN1C2CCC1CC(S(=O)(=O)N[C@H](COCc1ccccc1)C(=O)N1CCC3(CC1)CN(S(C)(=O)=O)c1ccccc13)C2` (stereo partly drawn) [Compound 145, N-((R)-3-(benzyloxy)-1-(1-(methylsulfonyl)spiro[indoline-3,4′-piperidine]-1′-yl)-1-oxopropan-2-yl)-8-methyl-8-azabicyclo[3.2.1]octane-3-sulfonamide], the Ki was above 1 µM.

`CS(=O)(=O)N1CC2(CCN(C(=O)[C@@H](COCc3ccccc3)NS(=O)(=O)CCCCl)CC2)c2ccccc21` [Compound 146, (R)-N-(3-(benzyloxy)-1-(1-(methylsulfonyl)spiro[indoline-3,4′-piperidine]-1′-yl)-1-oxopropan-2-yl)-3-chloropropane-1-sulfonamide] displayed a Ki below 0.1 µM.

Source of the values: patent US20050261332A1, “Sulfonamides and uses thereof” (priority 2004, published 2005).
